One data set concerns M. tuberculosis H37Rv. The data set can be described thus: MIC, two-fold dilution, Dubos Tween albumin liquid medium. The note with it: Mycobacterium tuberculosis, 336 h, 37° C., 2 weeks, read-out: minimal inhibitory concentration (MIC). Format: cell-based. On the procedure: (§1) Fast-acid bacillus (0.01 mg) shown in Table 1 was inoculated into 2.0 ml of Dubos Tween albumin liquid medium and the minimal inhibitory concentration (MIC, μg/ml) of DO-248-A (Compound A), kanamycin (KM) and rifampicin (RFP) was measured by two-fold dilution method. The incubation temperature for Mycobacterium marinum was 28° C. and that for all other microorganisms was 37° C. The judgement was made generally 2 weeks later but 1 week later on M. furtuitum and M. chelonei and 5 weeks later on M. xenopi.

A further data set relates to M. bovis BCG. The data set can be described thus: microbe, parasite or virus in culture. Format: cell-based. Particulars: Mycobacterium tuberculosis variant bovis BCG, 336 h, read-out: minimal inhibitory concentration (MIC).
The next data set deals with M. kansasii KMC1101. The data set can be described thus: MIC, two-fold dilution, Dubos Tween albumin liquid medium. Format: cell-based. Particulars: Mycobacterium kansasii, read-out: minimal inhibitory concentration (MIC).
The test system of another data set is M. scrofulaceum KMC2102. Described as above. Format: cell-based. Particulars: Mycobacterium scrofulaceum, read-out: minimal inhibitory concentration (MIC).
Another data set has as its system M. gordonae KMC2201. The data set is described as above. Format: cell-based. Particulars: Mycobacterium gordonae, read-out: minimal inhibitory concentration (MIC).
For a further data set, the system named is M. szulgai KMC2401. Described as above. Format: cell-based. Particulars: 336 h, read-out: minimal inhibitory concentration (MIC).
The subject of another data set is M. xenopi KMC2301. The description is as above. Format: cell-based. The note with it: Mycobacterium xenopi.
In another data set the test system is M. simiae KMC1302. The description is as above. Format: cell-based. The note with it: 336 h, read-out: minimal inhibitory concentration (MIC).
For a further data set, the system named is M. avium KMC3101. The data set is described as above. Format: cell-based. Particulars: Mycobacterium avium, read-out: minimal inhibitory concentration (MIC).
Data set [1] relates to M. intracellulare KMC3209. The data set is described as above. Format: cell-based. The note with it: Mycobacterium intracellulare, read-out: minimal inhibitory concentration (MIC).
For data set [2], the system named is M. nonchromogenicum KMC3602. Described as above. Format: cell-based. Particulars: 336 h, read-out: minimal inhibitory concentration (MIC).
The next data set has as its system M. fortuitum KMC4101. Described as above. Format: cell-based. Particulars: Mycolicibacterium fortuitum, read-out: minimal inhibitory concentration (MIC).
A further data set has as its system M. chelonei KMC4201. The data set is described as above. Format: cell-based. Particulars: read-out: minimal inhibitory concentration (MIC).
Data set [3] concerns M. avium-intracellulare clinical isolated strain 16. Described as above. Format: cell-based. Particulars: 336 h, read-out: minimal inhibitory concentration (MIC).
The subject of data set [4] is fast-acid bacteria including tubercle bacillus. The data set can be described thus: Antibacterial activity against fast-acid (acid-fast) bacteria, in words. Format: cell-based. Particulars: for antibacterial activity against fast-acid (acid-fast) bacteria: in words. On the procedure:
as §1

For data set [5], the system named is kanamycin-resistant strains. The data set can be described thus: Antibacterial activity against resistant strains, in words. Format: cell-based. How it is done: as §1
Data set [6] concerns rifanpicin-resistant strains. The data set is described as above. Format: cell-based. On the procedure:
as §1

Data set [7] has as its system M. aviumintracellulare, a causative microorganism of refractory atypical fast-acid disease. The data set can be described thus: Comparative antibacterial activity, in words. Format: cell-based. Particulars: for activity against the pathogenic bacterium of atypical fast-acid bacterium disease relative to kanamycin: compared with kanamycin.
A further data set is described as follows: Solubility. Format: physicochemical.
Setting [8] is: 336 h, M. kansasii KMC1101, 37° C., 2 weeks.
Setting [9] is: 336 h, M. scrofulaceum KMC2102, 37° C., 2 weeks.
The mark [10] stands for this setting: 336 h, M. gordonae KMC2201, 37° C., 2 weeks.
Setting [11] is: M. szulgai KMC2401, 37° C., 2 weeks.
Where [12] appears, read: M. xenopi KMC2301, 37° C., 5 weeks, read-out: minimal inhibitory concentration (MIC).
[13] abbreviates: M. simiae KMC1302, 37° C., 2 weeks.
Where [14] appears, read: 336 h, M. avium KMC3101, 37° C., 2 weeks.
Setting [15] is: 336 h, M. intracellulare KMC3209, 37° C., 2 weeks.
Where [16] appears, read: M. nonchromogenicum KMC3602, 37° C., 2 weeks.
[17] abbreviates: 168 h, M. fortuitum KMC4101, 37° C., 1 week.
The mark [18] stands for this setting: 168 h, M. chelonei KMC4201, 37° C., 1 week.
Setting [19] is: M. avium-intracellulare clinical isolated strain 16, 37° C., 2 weeks.

Structures are written as SMILES. Converted amounts (≈) assume the structure as drawn. “Also recorded” adds a separate entry of the source. Where two headings read alike, the source gives them in different places. Bounds are passed on as bounds.

Regarding `CC(C)c1c(O)cc(C(NC(=N)N)C(=O)NCC(=O)O)cc1O` (stereo not drawn) [DO-248-A, N-(α-guanidino-3,5-dihydroxy-4-isopropylphenylacetyl)glycine], the MIC in the data set on M. tuberculosis H37Rv was found to be 0.05 µg/mL (≈ 0.154 µM); in the data set with M. bovis BCG, 0.05 µg/mL (≈ 0.154 µM); with M. kansasii KMC1101 (setting [8]), 0.00313 µg/mL (≈ 0.00965 µM); in the data set with M. scrofulaceum KMC2102 (setting [9]) it was 0.2 µg/mL (≈ 0.617 µM); in the data set with M. gordonae KMC2201 (setting [10]) it was 0.00625 µg/mL (≈ 0.0193 µM); with M. szulgai KMC2401 (setting [11]), 3.13 µg/mL (≈ 9.65 µM). In addition, the MIC with M. xenopi KMC2301 (setting [12]) was 0.39 µg/mL (≈ 1.2 µM); in the data set with M. simiae KMC1302 (setting [13]), 6.25 µg/mL (≈ 19.3 µM); in the data set on M. avium KMC3101 (setting [14]) it was 0.78 µg/mL (≈ 2.4 µM); in data set [1] (setting [15]), 0.025 µg/mL (≈ 0.0771 µM); in data set [2] (setting [16]), 12.5 µg/mL (≈ 38.5 µM); in the data set on M. fortuitum KMC4101 (setting [17]) it was above 25 µg/mL. Further, the MIC with M. chelonei KMC4201 (setting [18]) was above 25 µg/mL; in data set [3] (setting [19]) it was 0.1 µg/mL (≈ 0.308 µM). In addition, in data set [4], the “antibacterial activity against fast-acid (acid-fast) bacteria” value was “effective; also recorded: have antibacterial activity”. Moreover, the “effectiveness against kanamycin-resistant strains” value in [5] is listed as “effective; also recorded: have antibacterial activity”. Moreover, the “effectiveness against rifanpicin-resistant strains” value in [6] is on record as “effective; also recorded: have antibacterial activity”. The “activity against the pathogenic bacterium of atypical fast-acid bacterium disease relative to kanamycin” value in data set [7] is listed as “more active”. For the same molecule, in data set [7] (compared with kanamycin and rifanpicin), the “effectiveness against M. aviumintracellulare relative to kanamycin and rifanpicin” value is “more effective”. In addition, the Solubility entry was “slightly soluble” in “Solubility” (in acetone); “insoluble” in the data set “Solubility” (in benzene); “slightly soluble” in the data set “Solubility” (in chloroform); “readily soluble” in the data set “Solubility” (in dimethylformamide); “readily soluble” in “Solubility” (in ethanol); “insoluble” in the data set “Solubility” (in ether). In addition, the Solubility entry is “slightly soluble” in “Solubility” (in ethylacetate), “insoluble” in “Solubility” (in hexane), “readily soluble” in the data set “Solubility” (in methanol) and “soluble” in the data set “Solubility” (in water).
With `CCc1c(O)cc(C(NC(=N)N)C(=O)NCC(=O)O)cc1O` (stereo not drawn) [DO-248-B, N-(α-guanidino-3,5-dihydroxy-4-ethylphenylacetyl)glycine], in data set [4] (compared with DO-248-A), the “effectiveness relative to DO-248-A” value was “as effective as DO-248-A”. Also, the “antibacterial activity against fast-acid (acid-fast) bacteria” value in data set [4] is on record as “effective; also recorded: have antibacterial activity”. For the same molecule, the “effectiveness against kanamycin-resistant strains” value in [5] was “have antibacterial activity”. Also, in data set [6], the “effectiveness against rifanpicin-resistant strains” value is “have antibacterial activity”. In addition, in data set [7], the “activity against the pathogenic bacterium of atypical fast-acid bacterium disease relative to kanamycin” value is “more active”.
For `NC[C@H]1O[C@H](O[C@H]2[C@H](O)[C@@H](O[C@H]3O[C@H](CO)[C@@H](O)[C@H](N)[C@H]3O)[C@H](N)C[C@@H]2N)[C@H](O)[C@@H](O)[C@@H]1O` [KM, kanamycin], the MIC with M. tuberculosis H37Rv was found to be 0.025 µg/mL (≈ 0.0516 µM); with M. bovis BCG it was 0.00156 µg/mL (≈ 0.00322 µM); with M. kansasii KMC1101 (KMC1101, 336 h), 6.25 µg/mL (≈ 12.9 µM); in the data set with M. scrofulaceum KMC2102 (KMC2102, 336 h) it was 0.0125 µg/mL (≈ 0.0258 µM); in the data set on M. gordonae KMC2201 (KMC2201, 336 h), 0.39 µg/mL (≈ 0.805 µM); with M. szulgai KMC2401, 1.56 µg/mL (≈ 3.22 µM). Further, the MIC in the data set with M. xenopi KMC2301 (KMC2301, read-out: minimal inhibitory concentration (MIC)) is 0.1 µg/mL (≈ 0.206 µM); in the data set on M. simiae KMC1302 it was 12.5 µg/mL (≈ 25.8 µM); in the data set on M. avium KMC3101 (KMC3101, 336 h), 3.13 µg/mL (≈ 6.46 µM); in data set [1] (KMC3209, 336 h), 0.05 µg/mL (≈ 0.103 µM); in data set [2], above 25 µg/mL; in the data set on M. fortuitum KMC4101 (KMC4101, 168 h), 25 µg/mL (≈ 51.6 µM). Besides, the MIC is above 25 µg/mL in the data set on M. chelonei KMC4201 (KMC4201, 168 h) and 6.25 µg/mL (≈ 12.9 µM) in data set [3].
For the molecule `CO[C@H]1/C=C/O[C@@]2(C)Oc3c(C)c(O)c4c(O)c(c(/C=N/N5CCN(C)CC5)c(O)c4c3C2=O)NC(=O)/C(C)=C\C=C\[C@H](C)[C@H](O)[C@@H](C)[C@@H](O)[C@@H](C)[C@H](OC(C)=O)[C@@H]1C` [RFP, rifampicin], the MIC in the data set with M. tuberculosis H37Rv is below 0.001 µg/mL; with M. bovis BCG, below 0.001 µg/mL; in the data set on M. kansasii KMC1101 (setting [8]) it was 0.0125 µg/mL (≈ 0.0152 µM); with M. scrofulaceum KMC2102 (setting [9]), 0.00313 µg/mL (≈ 0.0038 µM); in the data set on M. gordonae KMC2201 (setting [10]), 0.0125 µg/mL (≈ 0.0152 µM); in the data set on M. szulgai KMC2401 (setting [11]), 0.025 µg/mL (≈ 0.0304 µM). The MIC is 0.00625 µg/mL (≈ 0.00759 µM) in the data set with M. xenopi KMC2301 (setting [12]); above 25 µg/mL in the data set with M. simiae KMC1302 (setting [13]); 0.2 µg/mL (≈ 0.243 µM) in the data set with M. avium KMC3101 (setting [14]); below 0.001 µg/mL in [1] (setting [15]); 25 µg/mL (≈ 30.4 µM) in data set [2] (setting [16]); 3.13 µg/mL (≈ 3.8 µM) in the data set with M. fortuitum KMC4101 (setting [17]). In addition, the MIC in the data set on M. chelonei KMC4201 (setting [18]) is 6.25 µg/mL (≈ 7.59 µM); in [3] (setting [19]), 3.13 µg/mL (≈ 3.8 µM).

(Values after patent US4647693A, “Antibiotics DO-248-A and B and process for preparing the same” (Shionogi & Co., Ltd., priority 1984, dated 1987).)
